Laboratory results from PubChem BioAssay (NCI).
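Following 48 hours of exposure in 96-well plates, responses at five concentrations were used to interpolate endpoints linearly. TGI: total growth inhibition.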

Columns and labels:
Test in all cases: inhibition of tumour cell growth, NCI panel, 48 h
[1] = tested on: KM12 colon
[2] = tested on: UACC-257 melanoma
[3] = tested on: SNB-75 CNS
[4] = tested on: HOP-62 NSCLC
[5] = tested on: SNB-19 CNS
[6] = tested on: SK-MEL-2 melanoma
[7] = tested on: HT29 colon
[8] = tested on: OVCAR-5 ovarian
[9] = tested on: SF-539 CNS
[10] = tested on: HS 578T breast
[11] = tested on: SF-295 CNS
[12] = tested on: COLO 205 colon
[13] = tested on: T-47D breast
[14] = tested on: NCI-H23 lung
[15] = tested on: IGROV1 ovarian
[16] = tested on: NCI-H522 lung
[17] = tested on: NCI-H460 lung
[18] = tested on: UACC-62 melanoma
[19] = tested on: SK-MEL-5 melanoma
[20] = tested on: MDA-MB-231 breast
[21] = tested on: CCRF-CEM leukemia
[22] = tested on: CAKI-1 renal
[23] = tested on: NCI-H226 lung
[24] = tested on: OVCAR-8 ovarian
[25] = tested on: MDA-N
[26] = tested on: TK-10 renal
[27] = tested on: ACHN renal
[28] = tested on: U251 CNS
[29] = tested on: K-562 leukemia
[30] = tested on: EKVX NSCLC
[31] = tested on: PC-3 prostate
[32] = tested on: DU-145 prostate
[33] = tested on: SW-620 colon
[34] = tested on: SN12C renal
[35] = tested on: HCC-2998 colon
[36] = tested on: HCT-116 colon
[37] = tested on: OVCAR-4 ovarian
[38] = tested on: LOX IMVI melanoma
[39] = tested on: M14 melanoma
[40] = tested on: MOLT-4 leukemia
[41] = tested on: MCF7 breast
[42] = tested on: RXF 393 renal
[43] = tested on: UO-31 renal
[44] = tested on: HOP-92 NSCLC
[45] = tested on: OVCAR-3 ovarian
[46] = tested on: BT-549 breast
[47] = tested on: SK-OV-3 ovarian
[48] = tested on: MALME-3M melanoma
[49] = tested on: HCT-15 colon
[50] = tested on: MDA-MB-435
[51] = tested on: SF-268 CNS
[52] = tested on: NCI/ADR-RES ovarian
[53] = tested on: HL-60(TB) leukemia
[54] = tested on: RPMI-8226 leukemia
[55] = tested on: A498 renal
[56] = tested on: A549 NSCLC
[57] = tested on: 786-0 renal
[58] = tested on: SR leukemia
[59] = tested on: SK-MEL-28 melanoma

CC(=O)O[C@H]1[C@@H](OC(C)=O)C(C)(C)/C=C/[C@H](C)C(=O)[C@@]2(OC(C)=O)C[C@@](C)(OC(C)=O)[C@H](OC(C)=O)[C@@H]2[C@H]2OC(=O)CC[C@@]2(OC(=O)c2ccccc2)[C@@H]1OCC(C)C
TGI [1]: > 100 µM | TGI [2]: > 100 µM | TGI [3]: 66.2 µM | TGI [4]: > 100 µM | TGI [5]: > 100 µM | TGI [6]: > 100 µM | TGI [7]: > 100 µM | TGI [8]: > 100 µM | TGI [9]: > 100 µM | TGI [10]: 65.4 µM | TGI [11]: > 100 µM | TGI [12]: > 100 µM | TGI [13]: > 100 µM | TGI [14]: > 100 µM | TGI [15]: > 100 µM | TGI [16]: > 100 µM | TGI [17]: > 100 µM | TGI [18]: > 100 µM | TGI [19]: > 100 µM | TGI [20]: > 100 µM | TGI [21]: > 100 µM | TGI [22]: > 100 µM | TGI [23]: > 100 µM | TGI [24]: > 100 µM | TGI [25]: > 100 µM | TGI [26]: > 100 µM | TGI [27]: > 100 µM | TGI [28]: > 100 µM | TGI [29]: > 100 µM | TGI [30]: > 100 µM | TGI [31]: > 100 µM | TGI [32]: > 100 µM | TGI [33]: > 100 µM | TGI [34]: > 100 µM | TGI [35]: > 100 µM | TGI [36]: 65.2 µM | TGI [37]: > 100 µM | TGI [38]: > 100 µM | TGI [39]: > 100 µM | TGI [40]: > 100 µM | TGI [41]: > 100 µM | TGI [42]: > 100 µM | TGI [43]: > 100 µM | TGI [44]: > 100 µM | TGI [45]: > 100 µM | TGI [46]: > 100 µM | TGI [47]: > 100 µM | TGI [48]: > 100 µM | TGI [49]: > 100 µM | TGI [50]: > 100 µM | TGI [51]: > 100 µM | TGI [52]: > 100 µM | TGI [53]: > 100 µM

CC(C)(C)c1ccc(C(C)(C)C)c(N2C(=O)C3ON=C(c4ccc([N+](=O)[O-])cc4)C3C2=O)c1 (stereo not drawn)
TGI [1]: > 25 µM | TGI [54]: > 25 µM | TGI [2]: > 25 µM | TGI [3]: 14.3 µM | TGI [4]: > 25 µM | TGI [55]: 23.2 µM | TGI [5]: > 25 µM | TGI [56]: > 25 µM | TGI [7]: > 25 µM | TGI [8]: > 25 µM | TGI [9]: > 25 µM | TGI [10]: > 25 µM | TGI [11]: > 25 µM | TGI [12]: > 25 µM | TGI [13]: > 25 µM | TGI [14]: > 25 µM | TGI [15]: 19.4 µM | TGI [57]: 9.71 µM | TGI [16]: > 25 µM | TGI [17]: > 25 µM | TGI [18]: > 25 µM | TGI [19]: > 25 µM | TGI [21]: > 25 µM | TGI [22]: > 25 µM | TGI [23]: > 25 µM | TGI [24]: > 25 µM | TGI [25]: > 25 µM | TGI [58]: > 25 µM | TGI [26]: > 25 µM | TGI [27]: > 25 µM | TGI [29]: > 25 µM | TGI [30]: > 25 µM | TGI [32]: > 25 µM | TGI [33]: > 25 µM | TGI [34]: > 25 µM | TGI [35]: > 25 µM | TGI [59]: > 25 µM | TGI [36]: > 25 µM | TGI [37]: > 25 µM | TGI [38]: > 25 µM | TGI [39]: > 25 µM | TGI [40]: > 25 µM | TGI [41]: > 25 µM | TGI [42]: > 25 µM | TGI [43]: > 25 µM | TGI [44]: > 25 µM | TGI [45]: > 25 µM | TGI [46]: > 25 µM | TGI [47]: > 25 µM | TGI [48]: > 25 µM | TGI [49]: > 25 µM | TGI [50]: > 25 µM | TGI [51]: > 25 µM | TGI [52]: > 25 µM | TGI [53]: > 25 µM
